Where a name gives a salt, the structure may show the parent alone.
Molecular target: T1, Human α-thrombin (Homo sapiens, UniProt P00734)
T1 construct: Human α-thrombin; purchased Sigma Chemical Co. or Hematologic Technologies
Assay: Test A: Determination of Thrombin Inhibition with a Chromogenic, Robotic Assay
Assay type: biochemical
Conditions: chromogenic substrate S-2366 0.30 mmol/L, α-thrombin 0.020 NIHU/mL, 40 minutes incubation at 37° C.
Description: Determination of Thrombin Inhibition with a Chromogenic, Robotic Assay
The thrombin inhibitor potency is measured with a chromogenic substrate method, in a Plato 3300 robotic microplate processor (Rosys AG, CH-8634 Hombrechtikon, Switzerland), using 96-well, half volume microtitre plates (Costar, Cambridge, Mass., USA; Cat No 3690). Stock solutions of test substance in DMSO (72 μL), 0.1-1 mmol/L, are diluted serially 1:3 (24+48 μL) with DMSO to obtain ten different concentrations, which are analysed as samples in the assay. 2 μL of test sample is diluted with 124 μL assay buffer, 12 μL of chromogenic substrate solution (S-2366, Chromogenix, Mölndal, Sweden) in assay buffer and finally 12 μL of α-thrombin solution (Human α-thrombin, Sigma Chemical Co. or Hematologic Technologies) in assay buffer, are added, and the samples mixed. The final assay concentrations are: test substance 0.00068-133 μmol/L, S-2366 0.30 mmol/L, α-thrombin 0.020 NIHU/mL. The linear absorbance increment during 40 minutes incubation at 37° C. is used for calculation of percentage inhibition for the test samples, as compared to blanks without inhibitor.

IC50 [µM] | Molecule
0.022 | N[C@@H](C(=O)N1[C@H](C(=O)NCc2cc(Cl)ccc2-n2cnnn2)C[C@@H]2C[C@@H]21)c1ccc(O)cc1 [Example 48, (1S,3S,5S)-2-[(R)-2-Amino-2-(4-hydroxy-phenyl)-acetyl]-2-aza-bicyclo[3.1.0]hexane-3-carboxylic acid 5-chloro-2-tetrazol-1-yl-benzylamide hydrochloride]
0.004 | N[C@H](CC1CCCCC1)C(=O)N1CC2CC1(C(=O)NCc1cc(Cl)ccc1-n1cnnn1)C2 [Example 68, 2-((R)-2-Amino-3-cyclohexyl-propionyl)-2-aza-bicyclo[2.1.1]hexane-1-carboxylic acid 5-chloro-2-tetrazol-1-yl-benzylamide hydrochloride]
0.085 | O=C([C@H](O)C1CCCCC1)N1CC2CC1(C(=O)NCc1cc(Cl)ccc1-n1cnnn1)C2 [Example 67, 2-((R)-2-Cyclohexyl-2-hydroxy-acetyl)-2-aza-bicyclo[2.1.1]hexane-1-carboxylic acid 5-chloro-2-tetrazol-1-yl-benzylamide]
0.003 | O=C(NCc1cc(Cl)ccc1-n1cnnn1)[C@@H]1[C@H]2C[C@H]2CN1C(=O)[C@H](O)c1cccc(Cl)c1 [Example 57, (1S,2S,5R)-3-[(R)-2-(3-Chloro-phenyl)-2-hydroxy-acetyl]-3-aza-bicyclo[3.1.0]hexane-2-carboxylic acid 5-chloro-2-tetrazol-1-yl-benzylamide]
0.78 | O=C(NCc1cc(Cl)ccc1-n1cncn1)[C@@H]1C[C@@H]2C[C@@H]2N1C(=O)C(O)Cn1cncn1 (stereo partly drawn) [Example 69, (1S,3S,5S)-2-(2-Hydroxy-3-1,2,4-triazol-1-yl-propionyl)-2-aza-bicyclo[3.1.0]hexane-3-carboxylic acid 5-chloro-2-1,2,4-triazol-1-yl-benzylamide]
0.008 | NC(C(=O)N1[C@H](C(=O)NCc2cc(Cl)ccc2-n2cnnn2)C[C@@H]2C[C@@H]21)c1ccccc1F (stereo partly drawn) [Example 73, (1S,3S,5S)-2-[2-Amino-2-(2-fluoro-phenyl)-acetyl]-2-aza-bicyclo[3.1.0]hexane-3-carboxylic acid 5-chloro-2-tetrazol-1-yl-benzylamide]
0.42 | O=C(NCc1cc(Cl)ccc1-n1cnnn1)[C@@H]1C[C@@H]2C[C@@H]2N1C(=O)C(O)Cn1cncn1 (stereo partly drawn) [Example 51]
2.5 | N[C@H](CO)C(=O)N1[C@@H]2C[C@@H]2C[C@H]1C(=O)NCc1cc(Cl)ccc1-n1cnnn1 [Example 50, (1R,3S,5R)-2-((R)-2-Amino-3-hydroxy-propionyl)-2-aza-bicyclo[3.1.0]hexane-3-carboxylic acid 5-chloro-2-tetrazol-1-yl-benzylamide hydrochloride]
0.047 | O=C([C@H](O)c1ccccc1)N1CC2CC1(C(=O)NCc1cc(Cl)ccc1-n1cnnn1)C2 [Example 30, 2-((R)-2-Hydroxy-2-phenyl-acetyl)-2-aza-bicyclo[2.1.1]hexane-1-carboxylic acid 5-chloro-2-tetrazol-1-yl-benzylamide]
0.009 | O=C(NCc1cc(Cl)ccc1-n1cnnn1)[C@@H]1[C@H]2C[C@H]2CN1C(=O)[C@H](O)c1cc(Cl)cc(OC(F)F)c1 [Example 36, (1S,2S,5R)-3-[2-((R)-3-Chloro-5-difluoromethoxy-phenyl)-2-hydroxy-acetyl]-3-aza-bicyclo[3.1.0]hexane-2-carboxylic acid 5-chloro-2-tetrazol-1-yl-benzylamide]
0.01 | CC(C)(C1CC1)C(O)C(=O)N1[C@H](C(=O)NCc2cc(Cl)ccc2-n2cnnn2)C[C@@H]2C[C@@H]21 (stereo partly drawn) [Example 33, (1S,3S,5S)-2-(3-Cyclopropyl-2-hydroxy-3-methyl-butyryl)-2-aza-bicyclo[3.1.0]hexane-3-carboxylic acid 5-chloro-2-tetrazol-1-yl-benzylamide]
0.015 | CC(C)(C1CC1)C(O)C(=O)N1C[C@H]2C[C@H]2[C@H]1C(=O)NCc1cc(Cl)ccc1-n1cnnn1 (stereo partly drawn) [Example 61, (1R,2S,5S)-3-(3-Cyclopropyl-2-hydroxy-3-methyl-butyryl)-3-aza-bicyclo[3.1.0]hexane-2-carboxylic acid 5-chloro-2-tetrazol-1-yl-benzylamide]
0.29 | O=C([C@H](O)Cc1ccccc1)N1CC2CC1(C(=O)NCc1cc(Cl)ccc1-n1cnnn1)C2 [Example 29, 2-((R)-2-Hydroxy-3-phenyl-propionyl)-2-aza-bicyclo[2.1.1]hexane-1-carboxylic acid 5-chloro-2-tetrazol-1-yl-benzylamide]
0.002 | CC(C)(C1CC1)C(O)C(=O)N1C[C@@H]2C[C@@H]2[C@H]1C(=O)NCc1cc(Cl)ccc1-n1cnnn1 (stereo partly drawn) [Example 62, (1S,2S,5R)-3-(3-Cyclopropyl-2-hydroxy-3-methyl-butyryl)-3-aza-bicyclo[3.1.0]hexane-2-carboxylic acid 5-chloro-2-tetrazol-1-yl-benzylamide]
0.17 | O=C([C@H](O)CCc1ccccc1)N1CC2CC1(C(=O)NCc1cc(Cl)ccc1-n1cnnn1)C2 [Example 65, 2-((R)-2-Hydroxy-4-phenyl-butyryl)-2-aza-bicyclo[2.1.1]hexane-1-carboxylic acid 5-chloro-2-tetrazol-1-yl-benzylamide]
0.002 | CC(C)(C)C[C@@H](N)C(=O)N1[C@H](C(=O)NCc2cc(Cl)ccc2-n2cnnn2)C[C@@H]2C[C@@H]21 [Example 20, (1S,3S,5S)-2-((R)-2-Amino-4,4-dimethyl-pentanoyl)-2-aza-bicyclo[3.1.0]hexane-3-carboxylic acid 5-chloro-2-tetrazol-1-yl-benzylamide hydrochloride]
0.036 | O=C(NCc1cc(F)ccc1-n1cnnn1)[C@@H]1C[C@@H]2C[C@@H]2N1C(=O)[C@H](O)c1cccc(Cl)c1 [Example 70, (1S,3S,5S)-2-[(R)-2-(3-Chloro-phenyl)-2-hydroxy-acetyl]-2-aza-bicyclo[3.1.0]hexane-3-carboxylic acid 5-fluoro-2-tetrazol-1-yl-benzylamide]
0.45 | N[C@H](CO)C(=O)N1[C@H](C(=O)NCc2cc(Cl)ccc2-n2cnnn2)C[C@@H]2C[C@@H]21 [Example 49, (1S,3S,5S)-2-((R)-2-Amino-3-hydroxy-propionyl)-2-aza-bicyclo[3.1.0]hexane-3-carboxylic acid 5-chloro-2-tetrazol-1-yl-benzylamide hydrochloride]
0.006 | CC(C)(C)C[C@@H](O)C(=O)N1CC2CC1(C(=O)NCc1cc(Cl)ccc1-n1cnnn1)C2 [Example 28, 2-((R)-2-Hydroxy-4,4-dimethyl-pentanoyl)-2-aza-bicyclo[2.1.1]hexane-1-carboxylic acid 5-chloro-2-tetrazol-1-yl-benzylamide]
0.005 | N[C@@H](C(=O)N1[C@H](C(=O)NCc2cc(Cl)ccc2-n2cnnn2)C[C@@H]2C[C@@H]21)c1ccccc1 [Example 43, (1S,3S,5S)-2-((R)-2-Amino-2-phenyl-acetyl)-2-aza-bicyclo[3.1.0]hexane-3-carboxylic acid 5-chloro-2-tetrazol-1-yl-benzylamide]
0.001 | CC(C)(C)C[C@@H](N)C(=O)N1C[C@@H]2C[C@@H]2[C@H]1C(=O)NCc1cc(Cl)ccc1-n1cnnn1 [Example 18, (1S,2S,5R)-3-((R)-2-Amino-4,4-dimethyl-pentanoyl)-3-aza-bicyclo[3.1.0]hexane-2-carboxylic acid 5-chloro-2-tetrazol-1-yl-benzylamide hydrochloride]

Molecule | IC50 [µM]
O=C(N1CC2CC1(C(=O)NCc1cc(Cl)ccc1-n1cnnn1)C2)C1(O)CCOc2ccccc21 (racemic) [Example 64, (rac)-2-(4-Hydroxy-1-benzopyran-4-carbonyl)-2-aza-bicyclo[2.1.1]hexane-1-carboxylic acid 5-chloro-2-tetrazol-1-yl-benzylamide] | 0.04
(1S,3S,5S)-2-(4-Hydroxy-1-benzopyran-4-carbonyl)-2-aza-bicyclo[3.1.0]hexane-3-carboxylic acid 5-chloro-2-tetrazol-1-yl-benzylamide [Example 63] | 0.041
CC(C)(C)OC[C@@H](N)C(=O)N1C[C@@H]2C[C@@H]2[C@H]1C(=O)NCc1cc(Cl)ccc1-n1cnnn1 [Example 54, (1S,2S,5R)-3-((R)-2-Amino-3-tert-butoxy-propionyl)-3-aza-bicyclo[3.1.0]hexane-2-carboxylic acid 5-chloro-2-tetrazol-1-yl-benzylamide acetate] | 0.006
O=C(NCc1cc(Cl)ccc1-n1cnnn1)[C@@H]1C[C@@H]2C[C@@H]2N1C(=O)C1(O)CCCc2ncccc21 (stereo partly drawn) [Example 76, (1S,3S,5S)-2-(5-Hydroxy-5,6,7,8-tetrahydro-quinoline-5-carbonyl)-2-aza-bicyclo[3.1.0]hexane-3-carboxylic acid 5-chloro-2-tetrazol-1-yl-benzylamide] | 0.011
O=C(NCc1cc(Cl)ccc1-n1cnnn1)[C@@H]1C[C@@H]2C[C@@H]2N1C(=O)C1(O)CCCc2ncccc21 (stereo partly drawn) [Example 77, (1S,3S,5S)-2-(5-Hydroxy-5,6,7,8-tetrahydro-quinoline-5-carbonyl)-2-aza-bicyclo[3.1.0]hexane-3-carboxylic acid 5-chloro-2-tetrazol-1-yl-benzylamide] | 0.009
CC(C)(C)OC[C@@H](N)C(=O)N1[C@H](C(=O)NCc2cc(Cl)ccc2-n2cnnn2)C[C@@H]2C[C@@H]21 [Example 53, (1S,3S,5S)-2-((R)-2-Amino-3-tert-butoxy-propionyl)-2-aza-bicyclo[3.1.0]hexane-3-carboxylic acid 5-chloro-2-tetrazol-1-yl-benzylamide acetate] | 0.005

— US20090012087A1, “New Aza-Bicyclohexane Compounds Useful As Inhibitors Of Thrombin” (ASTRAZENECA AB, priority 2007, published 2009)
